This assay deals with T1, H^+ /K^+ ATPase (Oryctolagus cuniculus, UniProt P27112).
T1 construct: Rabbit gastric glands are isolated from gastric mucosa; from tissue; host or cells: rabbit isolated gastric glands (gastric mucosa, corpus region of the stomach)
Briefly: Inhibition of 14C-aminopyrine uptake in rabbit isolated gastric glands stimulated by DBcAMP or high K+ (anti-secretory activity). Type of assay: cell-based. As to conditions: for antisecretory activity: result in words in the introduction, test not named; for inhibition at 100 µM: 10^-4 M, % inhibition of maximum response to secretagogue. The method, then: Compounds of formula I may be tested for anti-secretory activity by their ability to inhibit the highly specific proton transporting enzyme H^+ /K^+ ATPase.
Potential H^+ /K^+ ATPase inhibitors are evaluated by a technique involving the measurement of aminopyrine accumulation in rabbit isolated gastric glands. Aminopyrine accumulates in acid-secreting cells; therefore, uptake of aminopyrine is increased by secretagogues and an inhibitor of acid secretion will reduce the response to one or more secretagogues depending upon its site of action.
The following test procedure is used:
Rabbit gastric glands are isolated from gastric mucosa from the corpus region of the stomach by a method based on one described by Berglindh T., Obrink K. J., Acta Physiol. Scand.
Compounds are tested at a concentration of 10^-4 M, for their ability to inhibit ^14 C-aminopyrine uptake in gastric glands, stimulated by DBcAMP and high K^+ respectively. Results are expressed as the % inhibition of the maximum response to the secretagogue induced by the test compound.

The mark [1] stands for this setting: 14C-aminopyrine uptake in rabbit gastric glands stimulated by DBcAMP, read-out: % Inhibition to stimulation by: DBcAMP.
Where [2] appears, read: 14C-aminopyrine uptake in rabbit gastric glands stimulated by high K^+, read-out: % Inhibition to stimulation by: K^+.

Like-named read-outs stand apart in the source and are kept apart here.

T1 sequence (P27112 whole entry): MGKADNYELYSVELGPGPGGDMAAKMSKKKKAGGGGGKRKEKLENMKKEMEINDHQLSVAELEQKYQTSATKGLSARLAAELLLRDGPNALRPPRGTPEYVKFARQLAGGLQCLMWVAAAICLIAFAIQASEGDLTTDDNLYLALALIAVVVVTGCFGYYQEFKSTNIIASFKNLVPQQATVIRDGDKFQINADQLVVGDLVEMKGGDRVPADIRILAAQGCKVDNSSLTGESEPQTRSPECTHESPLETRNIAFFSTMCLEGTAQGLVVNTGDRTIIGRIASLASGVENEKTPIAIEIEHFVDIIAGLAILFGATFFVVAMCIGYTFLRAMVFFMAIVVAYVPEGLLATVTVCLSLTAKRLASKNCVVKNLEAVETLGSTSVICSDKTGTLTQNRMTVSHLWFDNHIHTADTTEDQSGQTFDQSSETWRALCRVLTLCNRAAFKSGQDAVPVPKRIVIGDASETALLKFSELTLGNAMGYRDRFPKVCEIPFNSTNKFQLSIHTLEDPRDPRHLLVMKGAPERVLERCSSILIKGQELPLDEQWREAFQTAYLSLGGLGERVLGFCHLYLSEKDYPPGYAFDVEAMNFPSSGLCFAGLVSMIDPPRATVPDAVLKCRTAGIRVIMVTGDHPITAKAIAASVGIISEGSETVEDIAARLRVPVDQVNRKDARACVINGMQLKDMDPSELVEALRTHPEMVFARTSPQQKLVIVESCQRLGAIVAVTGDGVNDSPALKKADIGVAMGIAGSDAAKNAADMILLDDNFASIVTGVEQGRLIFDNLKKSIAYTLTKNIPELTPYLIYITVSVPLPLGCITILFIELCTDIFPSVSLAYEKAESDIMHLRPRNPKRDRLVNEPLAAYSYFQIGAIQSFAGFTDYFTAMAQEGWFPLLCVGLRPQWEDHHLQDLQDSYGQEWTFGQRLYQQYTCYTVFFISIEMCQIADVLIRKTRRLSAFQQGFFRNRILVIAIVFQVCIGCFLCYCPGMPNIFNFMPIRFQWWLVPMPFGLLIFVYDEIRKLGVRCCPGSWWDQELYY
T1 sequence (P18597 whole entry partner): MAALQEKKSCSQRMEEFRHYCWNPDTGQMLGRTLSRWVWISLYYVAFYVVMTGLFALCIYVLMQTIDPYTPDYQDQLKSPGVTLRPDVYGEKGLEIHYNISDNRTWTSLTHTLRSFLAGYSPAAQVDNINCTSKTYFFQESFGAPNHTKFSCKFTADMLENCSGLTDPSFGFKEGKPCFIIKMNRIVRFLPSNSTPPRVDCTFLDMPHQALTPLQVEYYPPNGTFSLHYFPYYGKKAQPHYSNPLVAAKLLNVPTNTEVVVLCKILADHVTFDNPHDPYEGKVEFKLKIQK

As to `O=C(Nc1ccccc1Cl)c1cc[n+]([O-])cc1` [2-chlorophenyl, reference compound], the antisecretory activity result is given as “not active”. Broadly, the inhibition is the change of the read-out against control, counted positive when it falls. Take `O=C(Nc1ccc(Cl)cc1NC(=O)c1cc[n+]([O-])cc1)c1cc[n+]([O-])cc1` [4-Chloro-N,N'-1,2-phenylenebis(4-pyridinecarboxamide-1-oxide)]: the inhibition at 100 µM reads like this: under setting [1], 20.5%; under setting [2], 27%. In the case of `Nc1ccc(NC(=O)c2cc[n+]([O-])cc2)cc1` [4-amino, reference compound], the antisecretory activity result is “inactive”.

In the case of `Nc1cccc(NC(=O)c2cc[n+]([O-])cc2)c1` [Example 3-amino, reference compound], the antisecretory activity result is “inactive”. Take `Nc1cc(Cl)c(Cl)cc1NC(=O)c1cc[n+]([O-])cc1` [N-(2-amino-4,5-dichlorophenyl)-4-pyridinecarboxamide-1-oxide]: the inhibition at 100 µM under setting [2] is 36%.

For the molecule `Nc1ccccc1NC(=O)c1cc[n+]([O-])cc1` [N-(2-aminophenyl)pyridine-4-carboxamide-1-oxide], the antisecretory activity entry is recorded as “exhibited antisecretory activity”. Besides, under setting [1], the inhibition at 100 µM worked out at 106%. For the same molecule, the inhibition at 100 µM under setting [2] was determined as 130%.

In the case of `O=C(Nc1ccc(Cl)cc1)c1cc[n+]([O-])cc1` [N-(4-chlorophenyl)-4-pyridinecarboxamide-1-oxide], the antisecretory activity result was “exhibited antisecretory activity”. For the same molecule, under setting [1], the inhibition at 100 µM came out at 22%. The inhibition at 100 µM under setting [2] is 32%.

As for `O=C(Nc1ccc([N+](=O)[O-])cc1)c1cc[n+]([O-])cc1` [N-(4-nitrophenyl)pyridine-4-carboxamide-1-oxide], the inhibition at 100 µM amounted to 33% under setting [1] and 84% under setting [2]. Turning to `Nc1ccccc1NC(=O)c1ccncc1` [N--(2-aminophenyl)pyridine-4-carboxamide, N-(2-aminophenyl)-4-pyridinecarboxamide], the inhibition at 100 µM under setting [2] came to 54%.

Take `O=C(Nc1ccc(Cl)c(C(F)(F)F)c1)c1cc[n+]([O-])cc1` [N-[4-chloro-3-(trifluoromethyl)phenyl]-4-pyridinecarboxamide-1-oxide]: the inhibition at 100 µM under setting [2] was 168%. With `O=C(Nc1ccccc1)c1cc[n+]([O-])cc1` [phenyl, reference compound], the antisecretory activity entry is recorded as “not active”.
